# Measured values from patent publication US8653087B2, “Pyrido [5, 4-D] pyrimidines as cell proliferation inhibitors” (Boehringer Ingelheim International GmbH, priority 2008, dated 2014).
# Target: B-Raf (V600E)-kinase (Homo sapiens (Human), UniProt P15056, V600E)
# Test: Kinase test B-RAF (V600E)
# Assay type: biochemical
# Settings: B-RAF (V600E) kinase test, 250 μM ATP
# Outline: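 B-Raf (V600E) (0.5 ng) preincubated with compound 24 h at RT (5% DMSO), then reacted 60 min at RT with 250 μM ATP and biotinylated MEK1 as substrate. Phospho-MEK (Ser217/221) captured on streptavidin and detected by europium time-resolved fluorescence; IC50 from dose-response curves.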
# Chain of B-Raf (V600E)-kinase (P15056 whole entry V600E): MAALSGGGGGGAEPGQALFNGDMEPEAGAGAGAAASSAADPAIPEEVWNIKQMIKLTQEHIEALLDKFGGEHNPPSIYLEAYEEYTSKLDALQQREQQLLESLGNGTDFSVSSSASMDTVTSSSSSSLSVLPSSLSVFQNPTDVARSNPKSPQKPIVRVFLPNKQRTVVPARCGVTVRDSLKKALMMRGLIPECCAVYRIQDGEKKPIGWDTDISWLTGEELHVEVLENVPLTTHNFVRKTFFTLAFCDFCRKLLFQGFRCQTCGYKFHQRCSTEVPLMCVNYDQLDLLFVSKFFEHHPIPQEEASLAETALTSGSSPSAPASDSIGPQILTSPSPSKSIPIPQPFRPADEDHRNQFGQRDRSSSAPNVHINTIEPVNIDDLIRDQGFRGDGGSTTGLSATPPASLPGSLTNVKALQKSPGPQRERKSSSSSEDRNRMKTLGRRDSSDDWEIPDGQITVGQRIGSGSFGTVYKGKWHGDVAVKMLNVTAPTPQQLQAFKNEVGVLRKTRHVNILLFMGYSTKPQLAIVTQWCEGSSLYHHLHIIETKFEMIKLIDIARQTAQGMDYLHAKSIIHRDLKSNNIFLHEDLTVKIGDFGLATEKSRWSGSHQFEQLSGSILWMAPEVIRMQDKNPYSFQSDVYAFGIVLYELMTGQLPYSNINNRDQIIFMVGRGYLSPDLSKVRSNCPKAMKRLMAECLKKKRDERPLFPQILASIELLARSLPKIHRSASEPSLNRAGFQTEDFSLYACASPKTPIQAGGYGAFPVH
row,IC50 [nM],Compound
1,2,Cc1ccc(NC(=O)c2cccc(C(C)(C)C#N)c2)cc1Nc1ncnc2cnc(N3CCC(F)(F)C3)nc12 [IV-33]
2,6,Cc1ccc(C(=O)Nc2cc(C(F)(F)F)ccn2)cc1Nc1ncnc2cnc(N(C)CCN(C)C)nc12 [III-279]
3,2,Cc1ccc(C(=O)Nc2ccc(Cl)c(C(F)(F)F)c2)cc1Nc1ncnc2cnc(N(C)CCN(C)C)nc12 [III-235]
4,1,Cc1ccc(C(=O)Nc2cc(C(C)(C)C)on2)cc1Nc1ncnc2cnc(N(C)C3CCOC3)nc12 (centres unmarked) [III-365]
5,11,COc1ncc2ncnc(Nc3cc(C(=O)Nc4cc(C(C)(C)C)nn4C)ccc3C)c2n1 [III-565]
6,2,Cc1ccc(C(=O)Nc2cccc(C(C)(C)C)c2)cc1Nc1ncnc2cnc(N3CCCC3)nc12 [III-272]
7,836,Cc1ccc(C(=O)NCc2ccc(C(C)(C)C)cc2)cc1Nc1ncnc2cnc(N3CCCC3)nc12 [III-267]
8,13,Cc1ccc(C(=O)Nc2cc(C(C)(C)C)n[nH]2)cc1Nc1ncnc2cnc(N3CCN(CC(C)C)CC3)nc12 [III-447]
9,2,Cc1ccc(C(=O)Nc2cc(C(C)(C)C)on2)cc1Nc1ncnc2cnc(NCC3CCCCO3)nc12 (centres unmarked) [III-361]
10,2,COCCN(C)c1ncc2ncnc(Nc3cc(C(=O)Nc4cc(C(F)(F)F)ccn4)ccc3C)c2n1 [III-472]
11,4,Cc1ccc(C(=O)Nc2ccc(N(C)CCN(C)C)c(C(F)(F)F)c2)cc1Nc1ncnc2cnc(NCc3ccccn3)nc12 [III-135]
12,15,Cc1ccc(NC(=O)c2cccc(C(F)(F)F)c2)cc1Nc1ncnc2c(N)nc(N(C)C)nc12 [II-7]
13,48,Cc1ccc(C(=O)NCc2ccc(C(C)(C)C)cc2)cc1Nc1ncnc2cnc(N3CC[C@@H](F)C3)nc12 [III-241]
14,< 1,Cc1ccc(C(=O)Nc2cc(C(C)(C)C)on2)cc1Nc1ncnc2cnc(NC3CC(N4CCN(C)CC4)C3)nc12 (centres unmarked) [III-592]
15,4,COc1ccc(C(C)(C)C)cc1NC(=O)c1ccc(C)c(Nc2ncnc3cnc(N4CCOCC4)nc23)c1 [III-306]
16,< 1,Cc1ccc(C(=O)Nc2cccc(C(C)(C)C)c2)cc1Nc1ncnc2cnc(NCc3ccccc3)nc12 [III-428]
17,5,Cc1ccc(C(=O)Nc2cc(C(C)(C)C)n[nH]2)cc1Nc1ncnc2cncnc12 [V-9]
18,1,Cc1ccc(C(=O)Nc2cccc(C(F)(F)F)c2)cc1Nc1ncnc2cnc(N3CCNCC3)nc12 [III-339]
19,7,Cc1ccc(C(=O)Nc2cccc(S(=O)(=O)N(C)C)c2)cc1Nc1ncnc2cnc(N3CC[C@H](F)C3)nc12 [III-293]
20,2,Cc1ccc(C(=O)Nc2cc(C(C)(C)C)n[nH]2)cc1Nc1ncnc2cnc(NCc3ccccc3)nc12 [III-512]
21,2,COCCN(C)c1ncc2ncnc(Nc3cc(C(=O)Nc4cc(C(C)(C)C)nn4C)ccc3C)c2n1 [III-465]

# The next lines start with the compound.
row,Compound,IC50 [nM]
1,Cc1ccc(C(=O)Nc2cc(-n3ccnc3)cc(C(F)(F)F)c2)cc1Nc1ncnc2cnc(N3CCOCC3)nc12 [III-530],582
2,COc1ccc(C(=O)Nc2ccc(OC)c(C(F)(F)F)c2)cc1Nc1ncnc2cnc(N3CCOCC3)nc12 [III-25],2
3,Cc1ccc(NC(=O)c2cccc(C(F)(F)F)c2)cc1Nc1ncnc2c(N)nc(N3CCN(CC4CCN(C)CC4)CC3)nc12 [II-14],4
4,CCN1CCN(c2cc(NC(=O)c3ccc(C)c(Nc4ncnc5c(N)nc(N6CCCOCC6)nc45)c3)cc(C(F)(F)F)c2)CC1 [I-81],3
5,Cc1ccc(C(=O)Nc2cc(C(C)(C)C)on2)cc1Nc1ncnc2cnc(N3CCN(CCN4CCOCC4)CC3)nc12 [III-370],1
6,COc1ccc(NC(=O)c2ccc(C(F)(F)F)c(Nc3ncnc4cnc(N5CCCCCC5)nc34)c2)cc1C(F)(F)F [III-44],> 2000
7,CCN1CCN(c2ncc3ncnc(Nc4cc(C(=O)Nc5ccc(OC)c(C(F)(F)F)c5)ccc4F)c3n2)CC1 [III-405],5
8,COc1ccc(NC(=O)c2ccc(F)c(Nc3ncnc4cnc(N(C)CCN(C)C)nc34)c2)cc1C(F)(F)F [III-31],< 1
9,COc1ccc(NC(=O)c2ccc(C)c(Nc3ncnc4cnc(N5CCC(N(C)C)CC5)nc34)c2)cc1C(F)(F)F [III-435],1
10,Cc1ccc(NC(=O)c2cc(C(C)(C)C)on2)cc1Nc1ncnc2cnc(N3CCN(C)CC3)nc12 [IV-5],129
11,COc1ccc(NC(=O)c2ccc(C)c(Nc3ncnc4cnc(N5CCN(CC(C)C)CC5)nc34)c2)cc1C(F)(F)F [III-444],4
12,Cc1ccc(NC(=O)c2cccc(C(F)(F)F)c2)cc1Nc1ncnc2c(N)nc(N3CCNCC3)nc12 [II-19],9
13,COc1ccc(C(=O)Nc2ccc(OC)c(C(F)(F)F)c2)cc1Nc1ncnc2cnc(NCCN3CCOCC3)nc12 [III-28],3
14,COc1ccc(C(=O)Nc2ccc(OC)c(C(F)(F)F)c2)cc1Nc1ncnc2cnc(N(C)C)nc12 [III-29],2
15,CN1CCCN(c2ncc3ncnc(Nc4cc(C(=O)Nc5cc(C(C)(C)C)on5)ccc4Cl)c3n2)CC1 [III-70],4
16,Cc1ccc(C(=O)Nc2cc(C(C)(C)C)n[nH]2)cc1Nc1ncnc2c(N)nc(N3C[C@@H](C)N[C@@H](C)C3)nc12 [I-35],2

row,Compound,IC50 [nM]
1,Cc1ccc(C(=O)Nc2ccc(C#N)c(C(F)(F)F)c2)cc1Nc1ncnc2cnc(N(C)CCN(C)C)nc12 [III-281],5
2,CN1CCN(c2ncc3ncnc(Nc4cc(C(=O)Nc5cc(C(C)(C)C)on5)ccc4F)c3n2)CC1 [III-318],2
3,Cc1ccc(C(=O)Nc2cc(N3CCN(C(C)C)CC3)cc(C(F)(F)F)c2)cc1Nc1ncnc2cnc(N3CCOCC3)nc12 [III-461],2
4,Cc1ccc(C(=O)Nc2cc(CN3CCCC3)cc(C(F)(F)F)c2)cc1Nc1ncnc2cnc(N3CCC(F)CC3)nc12 [III-103],2
5,COc1ccc(NC(=O)c2ccc(F)c(Nc3ncnc4cnc(N(C)C)nc34)c2)cc1C(F)(F)F [III-41],1
6,COc1ccc(C(F)(F)F)cc1NC(=O)c1ccc(C)c(Nc2ncnc3cnc(N4CCOCC4)nc23)c1 [III-304],< 1
7,Cc1ccc(C(=O)Nc2cc(C(C)(C)C)on2)cc1Nc1ncnc2cnc(N3CCN(CC(C)C)CC3)nc12 [III-494],4
8,Cc1ccc(C(=O)NC2CC2)cc1Nc1ncnc2cnc(N3CCOCC3)nc12 [III-194],> 2000
9,COc1ccc(C(F)(F)F)cc1NC(=O)c1ccc(C)c(Nc2ncnc3cnc(N4CCN(CC5CCN(C)CC5)CC4)nc23)c1 [III-413],< 1
10,Cc1ccc(C(=O)Nc2cc(N3CCN(C)CC3)cc(C(F)(F)F)c2)cc1Nc1ncnc2cnc(N3CCOCC3)nc12 [III-462],1
11,CN1CCC(CN2CCN(c3nc(N)c4ncnc(Nc5cc(C(=O)Nc6cccc(C(F)(F)F)c6)ccc5Br)c4n3)CC2)CC1 [I-29],15
12,COc1ccc(NC(=O)c2ccc(C)c(Nc3ncnc4cnc(N5CCCOCC5)nc34)c2)cc1C(F)(F)F [III-551],1
13,CC(C)(C)c1cc(NC(=O)c2ccc(C(F)(F)F)c(Nc3ncnc4cnc(NCCN5CCOCC5)nc34)c2)no1 [III-66],1140
14,COc1ccc(NC(=O)c2ccc(Cl)c(Nc3ncnc4cnc(N5CCCC5)nc34)c2)cc1C(F)(F)F [III-13],9
15,COc1ccc(NC(=O)c2ccc(F)c(Nc3ncnc4cnc(N5CCCCC5)nc34)c2)cc1C(F)(F)F [III-35],5
16,Cc1ccc(C(=O)Nc2cc(C(C)(C)C)n[nH]2)cc1Nc1ncnc2cnc(N3CCN(CC4CCOC4)CC3)nc12 (centres unmarked) [III-602],9
